Measurements: patent publication US20230321123A1, “INHIBITORS OF PSEUDOMONAS AERUGINOSA VIRULENCE FACTOR LasB” (Helmholtz-Zentrum Für Infektionsforschung GmbH, priority 2020, published 2023)
Like-named read-outs stand apart in the source and are kept apart here.

Tests used:
[1] = Cytotoxicity HEK293; type: cell-based; conditions: human
Description: (§1) The compounds of examples 1 and 5 were not toxic against the cell lines HepG2, HEK293 and A549 (Table 5). Additionally, the inhibitory effect against P. aeruginosa PA14 was evaluated to exclude an antibacterial effect of the compounds of the present invention. This is important as it was the aim to target virulence and not viability of the bacteria. […]

[2] = biological target: ADAM17 (TACE) (Homo sapiens, UniProt P78536); assay: Selectivity against human off-targets: ADAM17 (TACE); type: biochemical
[3] = Cytotoxicity HepG2; type: cell-based; conditions: human
Description: as §1

[4] = biological target: HDAC-3 (Homo sapiens, UniProt O15379); assay: Selectivity against human off-targets: HDAC-3; type: biochemical
Text: (§2) The inhibition of zinc-containing human enzymes is described frequently for LasB inhibitors and poses a serious difficulty in the development of selective compounds. Particularly, the inhibition of matrix metalloproteases (MMPs) should be avoided. To further investigate this issue, three derivatives (the compounds of examples 1, 5 and 8) have been tested for their selectivity against several human off-targets, including six MMPs, ADAM17 (TACE), HDAC-3 and HDAC-8 (Table 4). The selectivity of the compounds is particularly high for MMPs and HDACs, whereas the inhibition of ADAM17 was considerably stronger.

[5] = biological target: T1, HDAC-8 (Homo sapiens, UniProt Q9BY41); assay: Selectivity against human off-targets: HDAC-8; type: biochemical
T1 sequence (Q9BY41 1-377): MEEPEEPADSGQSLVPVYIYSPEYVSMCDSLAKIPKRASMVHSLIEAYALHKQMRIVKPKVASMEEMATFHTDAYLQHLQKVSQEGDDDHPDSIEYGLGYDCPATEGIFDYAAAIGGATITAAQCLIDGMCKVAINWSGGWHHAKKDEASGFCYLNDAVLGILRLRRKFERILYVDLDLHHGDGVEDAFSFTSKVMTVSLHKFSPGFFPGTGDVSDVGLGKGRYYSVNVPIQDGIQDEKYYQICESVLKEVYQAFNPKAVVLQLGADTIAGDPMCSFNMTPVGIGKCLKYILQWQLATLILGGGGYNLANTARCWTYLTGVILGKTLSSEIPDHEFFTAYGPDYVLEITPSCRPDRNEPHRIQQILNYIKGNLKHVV
Text: as §2

[6] = biological target: T2, MMP-1 (Homo sapiens, UniProt P03956); assay: Selectivity against human off-targets: MMP-1; type: biochemical; conditions: at 100 μM; read-out: Inhibition [%] MMP-1
T2 sequence (P03956 100-469): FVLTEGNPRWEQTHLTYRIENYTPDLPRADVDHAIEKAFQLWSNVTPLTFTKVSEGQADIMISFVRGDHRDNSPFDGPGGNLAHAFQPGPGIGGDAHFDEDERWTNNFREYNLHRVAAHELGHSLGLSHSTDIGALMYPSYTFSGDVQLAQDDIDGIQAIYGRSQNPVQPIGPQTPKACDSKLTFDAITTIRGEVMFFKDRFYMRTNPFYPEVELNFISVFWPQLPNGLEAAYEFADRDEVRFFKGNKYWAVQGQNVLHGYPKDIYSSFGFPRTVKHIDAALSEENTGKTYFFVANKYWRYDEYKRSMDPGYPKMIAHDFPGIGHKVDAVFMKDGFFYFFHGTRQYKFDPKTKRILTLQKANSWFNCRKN
Text: as §2

[7] = biological target: LasB (Pseudomonas aeruginosa, UniProt Q02RJ6); assay: biochemical; set-up: species or system P. aeruginosa
[8] = Cytotoxicity A549; type: cell-based; conditions: human
Description: as §1

[9] = system: P. aeruginosa PA14; assay: PA14 inhibition (MIC, antibacterial effect); type: cell-based; conditions: Pseudomonas aeruginosa, PA14; read-out: MIC PA14
Description: as §1

[10] = biological target: T3, MMP-2 (Homo sapiens, UniProt P08253); assay: Selectivity against human off-targets: MMP-2; type: biochemical; conditions: at 100 μM; read-out: Inhibition [%] MMP-2
T3 sequence (P08253 110-660): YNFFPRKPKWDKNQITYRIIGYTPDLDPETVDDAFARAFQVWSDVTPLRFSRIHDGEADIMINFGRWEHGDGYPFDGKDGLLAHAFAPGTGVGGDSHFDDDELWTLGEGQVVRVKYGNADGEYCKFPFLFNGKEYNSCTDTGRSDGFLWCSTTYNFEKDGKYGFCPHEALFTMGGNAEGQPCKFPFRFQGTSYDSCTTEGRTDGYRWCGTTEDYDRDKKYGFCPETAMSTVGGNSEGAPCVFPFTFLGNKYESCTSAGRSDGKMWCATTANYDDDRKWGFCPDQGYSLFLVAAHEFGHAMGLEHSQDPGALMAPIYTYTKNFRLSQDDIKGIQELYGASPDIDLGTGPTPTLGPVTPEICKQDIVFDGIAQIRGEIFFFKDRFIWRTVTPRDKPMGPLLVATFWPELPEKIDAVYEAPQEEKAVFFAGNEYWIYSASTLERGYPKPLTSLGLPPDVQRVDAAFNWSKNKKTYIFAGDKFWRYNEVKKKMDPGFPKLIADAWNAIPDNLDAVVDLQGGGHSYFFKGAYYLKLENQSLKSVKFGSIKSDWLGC
Text: as §2

[11] = biological target: MMP-3 (Homo sapiens, UniProt P08254); assay: Selectivity against human off-targets: MMP-3; type: biochemical; conditions: at 100 μM; read-out: Inhibition [%] MMP-3
Text: as §2

[12] = biological target: T4, MMP-7 (Homo sapiens, UniProt P09237); assay: Selectivity against human off-targets: MMP-7; type: biochemical; conditions: at 100 μM; read-out: Inhibition [%] MMP-7
T4 sequence (P09237 95-267): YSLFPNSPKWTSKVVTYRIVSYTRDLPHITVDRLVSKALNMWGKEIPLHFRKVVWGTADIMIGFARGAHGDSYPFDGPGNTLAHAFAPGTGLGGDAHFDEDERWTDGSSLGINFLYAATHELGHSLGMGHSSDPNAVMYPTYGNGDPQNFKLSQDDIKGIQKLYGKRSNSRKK
Text: as §2

[13] = biological target: MMP-8 (Homo sapiens, UniProt P22894); assay: Selectivity against human off-targets: MMP-8; type: biochemical; conditions: at 100 μM; read-out: Inhibition [%] MMP-8
Text: as §2

[14] = biological target: MMP-14 (Homo sapiens, UniProt P50281); assay: Selectivity against human off-targets: MMP-14; type: biochemical; conditions: at 100 μM; read-out: Inhibition [%] MMP-14
Text: as §2

Chain of LasB (Q02RJ6 198-498): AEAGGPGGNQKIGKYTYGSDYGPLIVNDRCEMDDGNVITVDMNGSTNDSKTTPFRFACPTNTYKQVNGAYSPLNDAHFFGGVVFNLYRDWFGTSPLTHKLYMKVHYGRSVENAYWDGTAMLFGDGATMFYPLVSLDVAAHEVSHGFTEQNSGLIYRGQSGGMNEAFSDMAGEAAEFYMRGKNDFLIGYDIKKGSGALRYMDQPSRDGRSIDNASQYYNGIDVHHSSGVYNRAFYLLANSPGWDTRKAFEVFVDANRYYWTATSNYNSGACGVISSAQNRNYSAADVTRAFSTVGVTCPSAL
Chain of HDAC-3 (O15379 whole entry): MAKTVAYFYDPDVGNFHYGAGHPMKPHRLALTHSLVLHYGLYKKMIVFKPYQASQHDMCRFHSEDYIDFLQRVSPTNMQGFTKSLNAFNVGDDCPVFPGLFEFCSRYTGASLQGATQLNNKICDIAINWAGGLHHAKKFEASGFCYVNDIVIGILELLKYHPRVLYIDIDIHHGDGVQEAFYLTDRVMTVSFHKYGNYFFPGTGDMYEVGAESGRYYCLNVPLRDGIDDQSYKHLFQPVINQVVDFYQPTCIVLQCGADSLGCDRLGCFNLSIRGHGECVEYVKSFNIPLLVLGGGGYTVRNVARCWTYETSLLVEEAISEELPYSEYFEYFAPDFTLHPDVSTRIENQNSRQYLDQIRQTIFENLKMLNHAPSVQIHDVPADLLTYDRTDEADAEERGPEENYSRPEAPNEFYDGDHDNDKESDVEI
Chain of HDAC-3 (Q9Y618 395-489 partner limits assumed): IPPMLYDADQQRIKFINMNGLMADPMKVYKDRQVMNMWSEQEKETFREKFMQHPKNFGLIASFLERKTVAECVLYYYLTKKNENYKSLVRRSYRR
Chain of MMP-3 (P08254 100-477): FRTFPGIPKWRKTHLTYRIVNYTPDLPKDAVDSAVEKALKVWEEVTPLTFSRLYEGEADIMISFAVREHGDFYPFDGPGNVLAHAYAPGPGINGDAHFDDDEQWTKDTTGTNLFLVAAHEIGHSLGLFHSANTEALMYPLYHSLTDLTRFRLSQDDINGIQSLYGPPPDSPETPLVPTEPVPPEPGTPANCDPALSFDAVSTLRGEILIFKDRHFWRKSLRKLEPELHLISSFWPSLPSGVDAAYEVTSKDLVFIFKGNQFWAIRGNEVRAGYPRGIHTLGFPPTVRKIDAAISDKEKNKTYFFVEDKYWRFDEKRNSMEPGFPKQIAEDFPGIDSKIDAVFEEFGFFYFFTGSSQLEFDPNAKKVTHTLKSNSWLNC
Chain of ADAM17 (TACE) (P78536 215-824): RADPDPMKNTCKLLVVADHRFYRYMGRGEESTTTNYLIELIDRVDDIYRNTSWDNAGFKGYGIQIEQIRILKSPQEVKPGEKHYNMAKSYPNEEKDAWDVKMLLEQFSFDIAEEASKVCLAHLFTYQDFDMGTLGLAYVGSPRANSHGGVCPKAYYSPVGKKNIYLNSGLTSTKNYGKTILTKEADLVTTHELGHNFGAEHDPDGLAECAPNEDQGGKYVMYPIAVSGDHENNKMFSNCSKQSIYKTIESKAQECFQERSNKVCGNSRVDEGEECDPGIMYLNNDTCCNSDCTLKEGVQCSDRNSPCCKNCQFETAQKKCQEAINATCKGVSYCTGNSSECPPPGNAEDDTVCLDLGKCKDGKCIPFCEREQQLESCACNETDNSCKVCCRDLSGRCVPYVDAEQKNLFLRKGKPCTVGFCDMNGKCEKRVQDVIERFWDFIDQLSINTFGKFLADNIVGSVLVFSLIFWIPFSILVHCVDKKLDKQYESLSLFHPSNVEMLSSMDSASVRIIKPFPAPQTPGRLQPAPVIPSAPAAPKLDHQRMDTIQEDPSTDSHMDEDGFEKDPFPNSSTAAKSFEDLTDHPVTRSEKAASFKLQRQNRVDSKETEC
Chain of MMP-8 (P22894 101-467): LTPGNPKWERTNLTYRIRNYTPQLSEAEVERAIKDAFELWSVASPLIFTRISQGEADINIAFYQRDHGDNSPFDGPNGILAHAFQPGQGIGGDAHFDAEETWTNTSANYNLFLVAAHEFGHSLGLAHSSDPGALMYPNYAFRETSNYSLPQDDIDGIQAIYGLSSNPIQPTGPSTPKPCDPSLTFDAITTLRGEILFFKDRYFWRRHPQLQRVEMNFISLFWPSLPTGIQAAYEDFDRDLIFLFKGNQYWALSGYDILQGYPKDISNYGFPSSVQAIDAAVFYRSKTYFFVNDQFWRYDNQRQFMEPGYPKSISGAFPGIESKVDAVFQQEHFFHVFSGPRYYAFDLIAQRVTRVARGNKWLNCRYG

SMILES: Cc1ccc(NC(=O)C(CC(C)C)n2nccn2)cc1 (centres unmarked) [Example 177, 4-Methyl-N-(p-tolyl)-2-(2H-1,2,3-triazol-2-yl)pentanamide]
- IC50 ([1]; HEK293): > 100 µM
- IC50 ([2]; read-out: IC50 ADAM17 (TACE)): > 100 µM
- IC50 ([3]; HepG2): > 100 µM
- IC50 ([4]; read-out: IC50 HDAC-3): > 100 µM
- IC50 ([5]; read-out: IC50 HDAC-8): > 100 µM
- inhibition at 100 µM [6]: 7 ± 4%
- IC50 ([7]; IC50 against LasB): 5.3 ± 0.2 µM
- IC50 ([8]; A549): > 100 µM
- MIC [9]: > 100 µM

SMILES: CC(C)CC(C(=O)N[C@H](c1nc2cc(Oc3ccccc3)ccc2[nH]1)C(C)C)P(=O)(O)O (mixture of isomers) [Example 172, (4-Methyl-1-(((S)-2-methyl-1-(5-phenoxy-1H-benzo[d]imidazol-2-yl)propyl)amino)-1-oxopentan-2-yl)phosphonic acid]
- IC50 ([1]; HEK293): > 100 µM
- inhibition at 100 µM ([2]; at 100 μM): < 10%
- IC50 ([3]; HepG2): > 100 µM
- inhibition at 100 µM [10]: 12 ± 2%
- inhibition at 100 µM [6]: 18 ± 4%
- inhibition at 100 µM [11]: 18 ± 5%
- IC50 ([7]; IC50 against LasB (Table 16), heteropentacycles and benzannulated heteropentacycles): 12 ± 1 µM
- IC50 ([8]; A549): > 100 µM
- MIC [9]: > 100 µM

SMILES: Cc1ccc(NC(=O)C(CC(C)C)P(=O)(O)O)cc1 (centres unmarked) [Example 63, (4-Methyl-1-oxo-1-(p-tolylamino)pentan-2-yl)phosphonic acid]
- IC50 ([1]; HEK293 cells): > 100 µM
- IC50 [2]: > 100 µM
- IC50 ([3]; HepG2 cells): > 100 µM
- inhibition at 100 µM [12]: < 10%
- inhibition at 100 µM [13]: 10%
- inhibition at 100 µM [10]: < 10%
- IC50 [4]: > 100 µM
- inhibition at 100 µM [14]: 12 ± 7%
- IC50 [5]: > 100 µM
- inhibition at 100 µM [6]: < 10%
- inhibition at 100 µM [11]: < 10%
- IC50 ([7]; IC50 against LasB): 0.051 ± 0.007 µM
- IC50 ([8]; A549 cells): > 100 µM
- MIC [9]: > 100 µM

SMILES: O=C(Nc1ccc(O)cc1)C(S)Cc1ccccc1 (centres unmarked) [Example 5]
- IC50 ([1]; HEK293): > 100 µM
- IC50 ([2]; read-out: IC50 ADAM17 (TACE)): 2.3 ± 1.4 µM
- IC50 ([3]; HepG2): > 100 µM
- inhibition at 100 µM [13]: 19 ± 4%
- IC50 ([7]; IC50 against LasB): 0.59 ± 0.04 µM
- IC50 ([8]; A549): > 100 µM

SMILES: Cc1ccc(NC(=O)C(CC(C)C)n2ccnn2)cc1 (centres unmarked) [Example 174, 4-Methyl-N-(p-tolyl)-2-(1H-1,2,3-triazol-1-yl)pentanamide]
- IC50 ([1]; HEK293): > 100 µM
- IC50 ([2]; read-out: IC50 ADAM17 (TACE)): > 100 µM
- IC50 ([3]; HepG2): > 100 µM
- IC50 ([4]; read-out: IC50 HDAC-3): > 100 µM
- IC50 ([5]; read-out: IC50 HDAC-8): > 100 µM
- inhibition at 100 µM [11]: -3 ± 17%
- IC50 ([7]; IC50 against LasB): 2.8 ± 0.1 µM
- IC50 ([8]; A549): > 100 µM
- MIC [9]: > 100 µM

SMILES: CC(C)CC(C(=O)N[C@H](C(=O)Nc1ccc(Cl)c(Cl)c1)C(C)C)P(=O)(O)O (mixture of isomers) [Example 152, (1-(((S)-1-((3,4-Dichlorophenyl)amino)-3-methyl-1-oxobutan-2-yl)amino)-4-methyl-1-oxopentan-2-yl)phosphonic acid]
- IC50 ([1]; HEK293): > 100 µM
- IC50 ([2]; read-out: IC50 ADAM17 (TACE)): > 100 µM
- IC50 ([3]; HepG2): > 100 µM
- inhibition at 100 µM [10]: 7 ± 9%
- inhibition at 100 µM [6]: 13 ± 1%
- inhibition at 100 µM [11]: < 10%
- IC50 ([7]; IC50 against LasB): 0.0051 ± 0.0002 µM
- IC50 ([8]; A549): > 100 µM
- MIC [9]: > 100 µM

SMILES: CC(C)CC(C(=O)Nc1ccc(NS(=O)(=O)c2ccc(Cl)c(Cl)c2)cc1)P(=O)(O)O (centres unmarked) [Example 108, (1-((4-((3,4-Dichlorophenyl)sulfonamido)phenyl)amino)-4-methyl-1-oxopentan-2-yl)phosphonic acid]
- IC50 ([1]; HEK293 cells): > 100 µM
- IC50 ([3]; HepG2 cells): > 100 µM
- inhibition at 100 µM [10]: < 10%
- inhibition at 100 µM [6]: 12 ± 1%
- inhibition at 100 µM [11]: < 10%
- IC50 ([8]; A549 cells): > 100 µM
- MIC [9]: > 100 µM

SMILES: CC(C)CC(C(=O)Nc1ccc(-c2ccc(Cl)cc2)nc1)P(=O)(O)O (centres unmarked) [Example 92]
- IC50 ([1]; HEK293 cells): > 100 µM
- IC50 ([3]; HepG2 cells): > 100 µM
- inhibition at 100 µM [10]: 18%
- inhibition at 100 µM [6]: < 10%
- inhibition at 100 µM [11]: < 10%
- IC50 ([8]; A549 cells): > 100 µM
- MIC [9]: > 100 µM

SMILES: Cc1ccc(NC(=O)C(S)Cc2ccccc2)cc1 (centres unmarked) [Example 8]
- IC50 ([2]; read-out: IC50 ADAM17 (TACE)): 4.8 ± 1.2 µM
- IC50 ([7]; read-out: IC50 against LasB): 0.48 ± 0.04 µM

SMILES: Cc1ccc(NC(=O)C(CC(C)C)C(=O)NO)cc1 (centres unmarked) [Example 173, N^1-hydroxy-2-isobutyl-N^3-(p-tolyl)malonamide]
- IC50 ([1]; HEK293): > 100 µM
- IC50 ([2]; read-out: IC50 ADAM17 (TACE)): 16 ± 2 µM
- IC50 ([3]; HepG2): > 100 µM
- inhibition at 100 µM [10]: 26 ± 2%
- IC50 ([4]; read-out: IC50 HDAC-3): > 100 µM
- IC50 ([5]; read-out: IC50 HDAC-8): > 100 µM
- inhibition at 100 µM [6]: 29 ± 3%
- inhibition at 100 µM [11]: 16 ± 7%
- IC50 ([7]; IC50 against LasB): 0.014 ± 0.001 µM
- IC50 ([8]; A549): > 100 µM
- MIC [9]: > 100 µM
